Where a SMILES comes first, the peptide text is derived from it. [ ]: non-standard residue; d: D form.
Key:
Format in all cases: cell-based
C. glabrata = assay: MIC, clinical yeast strains; details: D-form peptide, concentrations tested 0.125 to 128 μg/ml
Procedure, shortened: (§1)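 Broth microdilution in Potato dextrose broth, inoculum 5.0×10^5 cfu/ml, peptide 0.125–128 μg/ml, incubated at 37 °C for 20–24 h; MIC taken as lowest concentration without visible growth. A. johnsonii clinical strains were tested the same way in Mueller Hinton broth.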

C. parapsilosis = assay: MIC, clinical yeast strains; details: D-form peptide, concentrations tested 0.125 to 128 μg/ml
Procedure, shortened: as §1

Candida albicans = assay: MIC, clinical yeast strains; details: D-form peptide, concentrations tested 0.125 to 128 μg/ml
Procedure, shortened: as §1

[1] = test system: clinical strains of A. johnsonii; assay: MIC, microdilution, clinical strains; design: unit: μg/ml; details: Acinetobacter johnsonii strain 1, Muller Hinton broth-cation adjusted, 0.02% BSA, 0.2% acetic acid
Procedure, shortened: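 Overnight MH agar colonies were suspended in MH broth to 5.0×10^5 cfu/ml, mixed with serial peptide dilutions (0.125–128 μg/ml) and incubated at 37° C for 20 to 24 hours. Yeast MICs were run the same way in potato dextrose broth, and wells were scored visually.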

[2] = test system: clinical strains of Acinetobacter baumannii; assay: MIC, microdilution, clinical strains; design: unit: μg/ml; details: 0.02% BSA, 0.2% acetic acid
Procedure, shortened: (§2)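 MIC = lowest peptide concentration without visual growth after 20–24 h at 37° C. Range 0.125–128 μg/ml, inoculum 5.0×10^5 cfu/ml, microdilution format. Antifungal tests used potato dextrose broth; bacterial tests used MH broth.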

[3] = test system: clinical strains of Serratia marcescens; assay: MIC, microdilution, clinical strains; details: 0.02% BSA, 0.2% acetic acid
Procedure, shortened: as §2

[4] = test system: clinical strains of Proteus mirabilis; assay: MIC, microdilution, clinical strains; details: 0.02% BSA, 0.2% acetic acid
Procedure, shortened: as §2

[5] = test system: clinical strains of E. coli; assay: MIC, microdilution, clinical strains; details: microdilution, Muller Hinton broth-cation adjusted, 0.02% BSA, 0.2% acetic acid
Procedure, shortened: as §2

[6] = test system: clinical strains of S. aureus; assay: MIC, microdilution, clinical strains; details: 0.02% BSA, 0.2% acetic acid
Procedure, shortened: as §2

[7] = test system: clinical strains of K. pneumoniae; assay: MIC, microdilution, clinical strains; details: 0.02% BSA, 0.2% acetic acid
Procedure, shortened: as §2

[8] = test system: clinical strains of P. aeruginosa; assay: MIC, microdilution, clinical strains; details: 0.02% BSA, 0.2% acetic acid
Procedure, shortened: as §2

[9] = test system: clinical strains of E. cloacae; assay: MIC, microdilution, clinical strains; details: 0.02% BSA, 0.2% acetic acid
Procedure, shortened: as §2

[10] = test system: clinical strains of S. pneumoniae; assay: MIC, microdilution, clinical strains; details: 0.02% BSA, 0.2% acetic acid
Procedure, shortened: as §2

C. quillermondiae = assay: MIC, clinical yeast strains; details: clinical yeast strain 1; D-form peptide; concentrations tested 0.125 to 128 μg/ml
Procedure, shortened: as §1

Structure (SMILES): CC[C@@H](C)[C@@H](NC(=O)[C@@H](CCSC)NC(=O)[C@@H](C)NC(=O)[C@@H](CCCNC(=N)N)NC(=O)[C@@H](Cc1c[nH]c2ccccc12)NC(=O)[C@@H](CCCCN)NC(=O)[C@H](N)CCCNC(=N)N)C(=O)N[C@H](CCCNC(=N)N)C(=O)N[C@H](CC(C)C)C(=O)N[C@H](Cc1c[nH]cn1)C(=O)N[C@H](C)C(=O)N[C@H](CCCCN)C(=O)N[C@H](CCCNC(=N)N)C(=O)N[C@H](CC(C)C)C(=O)N[C@H](CCCNC(=N)N)C(=O)N[C@H](CCCCN)C(=O)O [Chain104D] (H-[dR][dK][dW][dR][dA][dM][dI][dR][dL][dH][dA][dK][dR][dL][dR][dK]-OH)
- Minimum inhibitory concentration, C. glabrata strain 1 (C. glabrata; clinical yeast strain 1): 8
- Minimum inhibitory concentration, C. glabrata strain 2 (C. glabrata; clinical yeast strain 2): 8
- Minimum inhibitory concentration, C. glabrata strain 3 (C. glabrata; clinical yeast strain 3): 8
- Minimum inhibitory concentration, C. glabrata strain 4 (C. glabrata; clinical yeast strain 4): 16
- Minimum inhibitory concentration, C. parapsilosis strain 1 (C. parapsilosis; clinical yeast strain 1): 4
- Minimum inhibitory concentration, C. parapsilosis strain 2 (C. parapsilosis; clinical yeast strain 2): 4
- Minimum inhibitory concentration, C. parapsilosis strain 3 (C. parapsilosis; clinical yeast strain 3): 4
- Minimum inhibitory concentration, C. parapsilosis strain 4 (C. parapsilosis; clinical yeast strain 4): 2
- Minimum inhibitory concentration, Candida albicans strain 1 (Candida albicans; clinical yeast strain 1): 8
- Minimum inhibitory concentration, Candida albicans strain 2 (Candida albicans; clinical yeast strain 2): 8
- Minimum inhibitory concentration, Candida albicans strain 3 (Candida albicans; clinical yeast strain 3): 8
- Minimum inhibitory concentration, Candida albicans strain 4 (Candida albicans; clinical yeast strain 4): 8
- Minimum inhibitory concentration, Candida albicans strain 5 (Candida albicans; clinical yeast strain 5): 8
- Minimum inhibitory concentration [1]: 8
- Minimum inhibitory concentration ([2]; Acinetobacter baumannii strain 1, Muller Hinton broth-cation adjusted): 16
- Minimum inhibitory concentration ([2]; Acinetobacter baumannii strain 2, Muller Hinton broth-cation adjusted): 8
- Minimum inhibitory concentration ([2]; Acinetobacter baumannii strain 3, Muller Hinton broth-cation adjusted): 8
- Minimum inhibitory concentration ([2]; Acinetobacter baumannii strain 4, Muller Hinton broth-cation adjusted): 4
- Minimum inhibitory concentration ([2]; Acinetobacter baumannii strain 5, Muller Hinton broth-cation adjusted): 8
- Minimum inhibitory concentration ([3]; Serratia marcescens strain 1, Muller Hinton broth-cation adjusted): >128
- Minimum inhibitory concentration ([3]; Serratia marcescens strain 2, Muller Hinton broth-cation adjusted): >128
- Minimum inhibitory concentration ([3]; Serratia marcescens strain 3, Muller Hinton broth-cation adjusted): >128
- Minimum inhibitory concentration ([3]; Serratia marcescens strain 4, Muller Hinton broth-cation adjusted): >128
- Minimum inhibitory concentration ([3]; Serratia marcescens strain 5, Muller Hinton broth-cation adjusted): 128
- Minimum inhibitory concentration ([4]; Proteus mirabilis strain 1, Muller Hinton broth-cation adjusted): >128
- Minimum inhibitory concentration ([4]; Proteus mirabilis strain 2, Muller Hinton broth-cation adjusted): 32
- Minimum inhibitory concentration ([4]; Proteus mirabilis strain 3, Muller Hinton broth-cation adjusted): 128
- Minimum inhibitory concentration ([4]; Proteus mirabilis strain 4, Muller Hinton broth-cation adjusted): >128
- Minimum inhibitory concentration ([4]; Proteus mirabilis strain 5, Muller Hinton broth-cation adjusted): >128
- Minimum inhibitory concentration ([5]; Escherichia coli strain 1): 4
- Minimum inhibitory concentration ([5]; Escherichia coli strain 2): 4
- Minimum inhibitory concentration ([5]; Escherichia coli strain 3): 4
- Minimum inhibitory concentration ([5]; Escherichia coli strain 4): 4
- Minimum inhibitory concentration ([5]; Escherichia coli strain 5): 4
- Minimum inhibitory concentration ([6]; Staphylococcus aureus strain 1, Muller Hinton broth-cation adjusted): 4
- Minimum inhibitory concentration ([6]; Staphylococcus aureus strain 2, Muller Hinton broth-cation adjusted): 2
- Minimum inhibitory concentration ([6]; Staphylococcus aureus strain 3, Muller Hinton broth-cation adjusted): 4
- Minimum inhibitory concentration ([6]; Staphylococcus aureus strain 4, Muller Hinton broth-cation adjusted): 2
- Minimum inhibitory concentration ([6]; Staphylococcus aureus strain 5, Muller Hinton broth-cation adjusted): 4
- Minimum inhibitory concentration ([7]; Klebsiella pneumoniae strain 1, Muller Hinton broth-cation adjusted): 8
- Minimum inhibitory concentration ([7]; Klebsiella pneumoniae strain 2, Muller Hinton broth-cation adjusted): 4
- Minimum inhibitory concentration ([7]; Klebsiella pneumoniae strain 3, Muller Hinton broth-cation adjusted): 8
- Minimum inhibitory concentration ([7]; Klebsiella pneumoniae strain 4, Muller Hinton broth-cation adjusted): 16
- Minimum inhibitory concentration ([7]; Klebsiella pneumoniae strain 5, Muller Hinton broth-cation adjusted): 4
- Minimum inhibitory concentration ([8]; Pseudomonas aeruginosa strain 1, Muller Hinton broth-cation adjusted): 4
- Minimum inhibitory concentration ([8]; Pseudomonas aeruginosa strain 2, Muller Hinton broth-cation adjusted): 2
- Minimum inhibitory concentration ([8]; Pseudomonas aeruginosa strain 3, Muller Hinton broth-cation adjusted): 4
- Minimum inhibitory concentration ([8]; Pseudomonas aeruginosa strain 4, Muller Hinton broth-cation adjusted): 2
- Minimum inhibitory concentration ([8]; Pseudomonas aeruginosa strain 5, Muller Hinton broth-cation adjusted): 1
- Minimum inhibitory concentration ([9]; Enterobacter cloacae strain 1, Muller Hinton broth-cation adjusted): 4
- Minimum inhibitory concentration ([9]; Enterobacter cloacae strain 2, Muller Hinton broth-cation adjusted): 4
- Minimum inhibitory concentration ([9]; Enterobacter cloacae strain 3, Muller Hinton broth-cation adjusted): 8
- Minimum inhibitory concentration ([9]; Enterobacter cloacae strain 4, Muller Hinton broth-cation adjusted): 4
- Minimum inhibitory concentration ([9]; Enterobacter cloacae strain 5, Muller Hinton broth-cation adjusted): 2
- Minimum inhibitory concentration ([10]; Streptococcus pneumoniae strain 1, Muller Hinton broth-cation adjusted): 4
- Minimum inhibitory concentration ([10]; Streptococcus pneumoniae strain 2, Muller Hinton broth-cation adjusted): 2
- Minimum inhibitory concentration ([10]; Streptococcus pneumoniae strain 3, Muller Hinton broth-cation adjusted): 1
- Minimum inhibitory concentration ([10]; Streptococcus pneumoniae strain 4, Muller Hinton broth-cation adjusted): 4
- Minimum inhibitory concentration ([10]; Streptococcus pneumoniae strain 5, Muller Hinton broth-cation adjusted): 1
- Minimum inhibitory concentration, C. quillermondiae strain 1 (C. quillermondiae): 4

From patent publication US10457710B2, “Antimicrobial peptides, their variants and uses” (priority 2015, dated 2019)
